Measurements as given in PubChem BioAssay (NCI).
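Interpolation was linear, between the two tested concentrations surrounding the appropriate level; five concentrations were tested over 48 hours in 96-well plates. GI50 is the concentration that inhibits growth by half. TGI marks complete inhibition of growth.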

Legend:
Test in all cases: growth of human tumour cells (NCI), 48 h
BT-549 breast = tested on: BT-549 breast
NCI/ADR-RES ovarian = tested on: NCI/ADR-RES ovarian
UACC-257 melanoma = tested on: UACC-257 melanoma
SW-620 colon = tested on: SW-620 colon
SF-268 CNS = tested on: SF-268 CNS
T-47D breast = tested on: T-47D breast
HCC-2998 colon = tested on: HCC-2998 colon
NCI-H460 lung = tested on: NCI-H460 lung
EKVX NSCLC = tested on: EKVX NSCLC
HT29 colon = tested on: HT29 colon
UACC-62 melanoma = tested on: UACC-62 melanoma
NCI-H226 lung = tested on: NCI-H226 lung
SNB-19 CNS = tested on: SNB-19 CNS
HS 578T breast = tested on: HS 578T breast
PC-3 prostate = tested on: PC-3 prostate
786-0 renal = tested on: 786-0 renal
MDA-MB-435 = tested on: MDA-MB-435
SF-295 CNS = tested on: SF-295 CNS
MCF7 breast = tested on: MCF7 breast
A498 renal = tested on: A498 renal
NCI-H23 lung = tested on: NCI-H23 lung
COLO 205 colon = tested on: COLO 205 colon
MOLT-4 leukemia = tested on: MOLT-4 leukemia
SR leukemia = tested on: SR leukemia
LOX IMVI melanoma = tested on: LOX IMVI melanoma
HL-60(TB) leukemia = tested on: HL-60(TB) leukemia
CCRF-CEM leukemia = tested on: CCRF-CEM leukemia
DU-145 prostate = tested on: DU-145 prostate
ACHN renal = tested on: ACHN renal
M14 melanoma = tested on: M14 melanoma
MALME-3M melanoma = tested on: MALME-3M melanoma
SK-MEL-2 melanoma = tested on: SK-MEL-2 melanoma
KM12 colon = tested on: KM12 colon
HOP-92 NSCLC = tested on: HOP-92 NSCLC
RXF 393 renal = tested on: RXF 393 renal
MDA-MB-231 breast = tested on: MDA-MB-231 breast
CAKI-1 renal = tested on: CAKI-1 renal
SK-OV-3 ovarian = tested on: SK-OV-3 ovarian
OVCAR-5 ovarian = tested on: OVCAR-5 ovarian
SF-539 CNS = tested on: SF-539 CNS
OVCAR-3 ovarian = tested on: OVCAR-3 ovarian
OVCAR-8 ovarian = tested on: OVCAR-8 ovarian
A549 NSCLC = tested on: A549 NSCLC
RPMI-8226 leukemia = tested on: RPMI-8226 leukemia
SK-MEL-28 melanoma = tested on: SK-MEL-28 melanoma
HCT-15 colon = tested on: HCT-15 colon
SNB-75 CNS = tested on: SNB-75 CNS
SK-MEL-5 melanoma = tested on: SK-MEL-5 melanoma
SN12C renal = tested on: SN12C renal
TK-10 renal = tested on: TK-10 renal
U251 CNS = tested on: U251 CNS
OVCAR-4 ovarian = tested on: OVCAR-4 ovarian
NCI-H522 lung = tested on: NCI-H522 lung
UO-31 renal = tested on: UO-31 renal
HCT-116 colon = tested on: HCT-116 colon
HOP-62 NSCLC = tested on: HOP-62 NSCLC
K-562 leukemia = tested on: K-562 leukemia
IGROV1 ovarian = tested on: IGROV1 ovarian

## COCCOCCOCCOCCOc1ccc2c(c1)C(=O)c1nc3ncccc3c(=O)n1-2
BT-549 breast
  GI50: 1.1 µM
  TGI: 2.3 µM
NCI/ADR-RES ovarian
  GI50: 2.09 µM
  TGI: 6.41 µM
UACC-257 melanoma
  GI50: 0.763 µM
  TGI: 2.38 µM
SW-620 colon
  GI50: 1.15 µM
  TGI: 2.36 µM
SF-268 CNS
  GI50: 1.54 µM
  TGI: 5.17 µM
T-47D breast
  GI50: 3.03 µM
  TGI: 9.04 µM
HCC-2998 colon
  GI50: 1.32 µM
  TGI: 2.79 µM
NCI-H460 lung
  GI50: 0.4 µM
  TGI: 1.39 µM
EKVX NSCLC
  GI50: 1.87 µM
  TGI: 5.28 µM
HT29 colon
  GI50: 1.47 µM
  TGI: 3.7 µM
UACC-62 melanoma
  GI50: 0.371 µM
  TGI: 1.07 µM
NCI-H226 lung
  GI50: 1.65 µM
  TGI: 3.31 µM
SNB-19 CNS
  GI50: 1.28 µM
  TGI: 2.64 µM
HS 578T breast
  GI50: 1.09 µM
  TGI: 4.02 µM
PC-3 prostate
  GI50: 1.67 µM
  TGI: 16.5 µM
786-0 renal
  GI50: 2.17 µM
  TGI: 9.46 µM
MDA-MB-435
  GI50: 0.188 µM
  TGI: 0.364 µM
SF-295 CNS
  GI50: 0.351 µM
  TGI: 1.4 µM
MCF7 breast
  GI50: 0.799 µM
  TGI: 2.2 µM
A498 renal
  GI50: 1.77 µM
  TGI: 3.16 µM
NCI-H23 lung
  GI50: 0.279 µM
  TGI: 1.18 µM
COLO 205 colon
  GI50: 1.88 µM
  TGI: 3.35 µM
MOLT-4 leukemia
  GI50: 3.61 µM
  TGI: > 100 µM
SR leukemia
  GI50: 2.25 µM
  TGI: > 100 µM
LOX IMVI melanoma
  GI50: 0.39 µM
  TGI: 1.62 µM
HL-60(TB) leukemia
  GI50: 1.8 µM
  TGI: 5.05 µM
CCRF-CEM leukemia
  GI50: 2.43 µM
  TGI: 7.4 µM
DU-145 prostate
  GI50: 0.54 µM
  TGI: 1.79 µM
ACHN renal
  GI50: 2.64 µM
  TGI: 8.19 µM
M14 melanoma
  GI50: 0.312 µM
  TGI: 1.44 µM
MALME-3M melanoma
  GI50: 0.155 µM
  TGI: 0.339 µM
SK-MEL-2 melanoma
  GI50: 2.42 µM
  TGI: 6.21 µM
KM12 colon
  GI50: 1.22 µM
  TGI: 2.71 µM
HOP-92 NSCLC
  GI50: 8.23 µM
  TGI: 29.5 µM
RXF 393 renal
  GI50: 2.65 µM
  TGI: 9.26 µM
MDA-MB-231 breast
  GI50: 2.93 µM
  TGI: 52 µM
CAKI-1 renal
  GI50: 0.663 µM
  TGI: 2.02 µM
SK-OV-3 ovarian
  GI50: 2.81 µM
  TGI: 6.99 µM
OVCAR-5 ovarian
  GI50: 1.78 µM
  TGI: 3.16 µM
SF-539 CNS
  GI50: 0.551 µM
  TGI: 1.71 µM
OVCAR-3 ovarian
  GI50: 0.969 µM
  TGI: 3.39 µM
OVCAR-8 ovarian
  GI50: 1.57 µM
  TGI: 6.89 µM
A549 NSCLC
  GI50: 0.465 µM
  TGI: 2.41 µM
RPMI-8226 leukemia
  GI50: 1.86 µM
  TGI: 4.94 µM
SK-MEL-28 melanoma
  GI50: 0.765 µM
  TGI: 2.03 µM
HCT-15 colon
  GI50: 1.21 µM
  TGI: 2.6 µM
SNB-75 CNS
  GI50: 2.07 µM
  TGI: 3.65 µM
SK-MEL-5 melanoma
  GI50: 0.158 µM
  TGI: 0.312 µM
SN12C renal
  GI50: 1.38 µM
  TGI: 2.91 µM
TK-10 renal
  GI50: 1.29 µM
  TGI: 2.69 µM
U251 CNS
  GI50: 1.29 µM
  TGI: 2.56 µM
OVCAR-4 ovarian
  GI50: 1.74 µM
  TGI: 4.23 µM
NCI-H522 lung
  GI50: 1.67 µM
  TGI: 3.3 µM
UO-31 renal
  GI50: 1.53 µM
  TGI: 6.21 µM
HCT-116 colon
  GI50: 1.56 µM
  TGI: 4.46 µM
HOP-62 NSCLC
  GI50: 0.744 µM
  TGI: 2.18 µM

## CN1C=CN(Cc2ccc(-c3ccccn3)nc2)[CH-]1.CN1C=CN(Cc2ccc(-c3ccccn3)nc2)[CH-]1.[Au+3]
BT-549 breast
  GI50: 2.46 µM
  TGI: 20.1 µM
NCI/ADR-RES ovarian
  GI50: > 70.8 µM
  TGI: > 100 µM
UACC-257 melanoma
  GI50: 1.52 µM
  TGI: 7.47 µM
SW-620 colon
  GI50: 0.898 µM
  TGI: 17.2 µM
SF-268 CNS
  GI50: 5.91 µM
  TGI: 26.2 µM
T-47D breast
  GI50: 1.17 µM
  TGI: 3.07 µM
HCC-2998 colon
  GI50: 5.47 µM
  TGI: > 42.7 µM
K-562 leukemia
  GI50: 0.54 µM
  TGI: > 100 µM
NCI-H460 lung
  GI50: 3.37 µM
  TGI: > 100 µM
HT29 colon
  GI50: 1.96 µM
  TGI: > 100 µM
UACC-62 melanoma
  GI50: 1.4 µM
  TGI: 6.67 µM
NCI-H226 lung
  GI50: 5.65 µM
  TGI: > 64.2 µM
SNB-19 CNS
  GI50: 7.83 µM
  TGI: 40 µM
HS 578T breast
  GI50: > 40.6 µM
  TGI: > 100 µM
IGROV1 ovarian
  GI50: 1.42 µM
  TGI: 10.3 µM
PC-3 prostate
  GI50: 0.922 µM
  TGI: > 100 µM
786-0 renal
  GI50: 6.14 µM
  TGI: > 100 µM
MDA-MB-435
  GI50: 2.97 µM
  TGI: 20.9 µM
SF-295 CNS
  GI50: 4.87 µM
  TGI: > 100 µM
MCF7 breast
  GI50: 0.314 µM
  TGI: 12.2 µM
A498 renal
  GI50: 8.53 µM
  TGI: > 68.8 µM
NCI-H23 lung
  GI50: 5.37 µM
  TGI: > 100 µM
COLO 205 colon
  GI50: 0.421 µM
  TGI: 17.8 µM
MOLT-4 leukemia
  GI50: 1.1 µM
  TGI: 12.4 µM
SR leukemia
  GI50: 0.372 µM
  TGI: 42.7 µM
LOX IMVI melanoma
  GI50: 2.89 µM
  TGI: 13.4 µM
HL-60(TB) leukemia
  GI50: 1.22 µM
  TGI: 6.84 µM
CCRF-CEM leukemia
  GI50: 0.0834 µM
  TGI: 13.4 µM
DU-145 prostate
  GI50: 4.16 µM
  TGI: 36.8 µM
ACHN renal
  GI50: 14.6 µM
  TGI: > 100 µM
M14 melanoma
  GI50: 2.82 µM
  TGI: 20.6 µM
MALME-3M melanoma
  GI50: 2.21 µM
  TGI: 10.5 µM
SK-MEL-2 melanoma
  GI50: 7.05 µM
  TGI: 32.4 µM
KM12 colon
  GI50: 1.89 µM
  TGI: > 38.2 µM
HOP-92 NSCLC
  GI50: 3.2 µM
  TGI: 10.2 µM
RXF 393 renal
  GI50: 1.88 µM
  TGI: 17.8 µM
MDA-MB-231 breast
  GI50: 2.64 µM
  TGI: 15 µM
CAKI-1 renal
  GI50: 18.4 µM
  TGI: > 100 µM
SK-OV-3 ovarian
  GI50: 9.32 µM
  TGI: > 56.7 µM
OVCAR-5 ovarian
  GI50: 5.84 µM
  TGI: 27.3 µM
SF-539 CNS
  GI50: 2.34 µM
  TGI: 10.3 µM
OVCAR-3 ovarian
  GI50: 2.41 µM
  TGI: 13.8 µM
OVCAR-8 ovarian
  GI50: 3.19 µM
  TGI: > 100 µM
A549 NSCLC
  GI50: 8.69 µM
  TGI: > 100 µM
RPMI-8226 leukemia
  GI50: 1.34 µM
  TGI: 20.1 µM
SK-MEL-28 melanoma
  GI50: 2.47 µM
  TGI: 14.5 µM
HCT-15 colon
  GI50: 1.6 µM
  TGI: > 54.6 µM
SNB-75 CNS
  GI50: 13.9 µM
  TGI: > 51.8 µM
SK-MEL-5 melanoma
  GI50: 1.36 µM
  TGI: 17.8 µM
SN12C renal
  GI50: 2.98 µM
  TGI: > 45 µM
TK-10 renal
  GI50: 5.09 µM
  TGI: 27 µM
U251 CNS
  GI50: 4.35 µM
  TGI: 20.8 µM
OVCAR-4 ovarian
  GI50: 0.769 µM
  TGI: 14.1 µM
NCI-H522 lung
  GI50: 0.104 µM
  TGI: 0.494 µM
UO-31 renal
  GI50: 22 µM
  TGI: > 73.6 µM
HCT-116 colon
  GI50: 2.4 µM
  TGI: 10.9 µM
HOP-62 NSCLC
  GI50: 8.31 µM
  TGI: 25.8 µM
